From patent US9579322B2, “Methods for treating neurologic disorders” (EIP Pharma, LLC, priority 2014, dated 2017)

How the values were obtained:
[1] = cited from earlier work
PSD95 = PSD95 ELISA of cortex and hippocampus extracts; assay type: in vivo, Fischer rats
Protocol: (§1) The primary objective of this study was to investigate whether pre-treatment with compound VX-745 alleviates cognitive defects in aged rats. Plasma concentration of VX-745 was determined with LC-MS/MS at the end of the study from samples collected 1 hour post dosing. In addition, protein levels of PSD95 in ventral cortex and hippocampus, and levels of IL-1β in the hippocampus were analyzed by specific ELISA assays to evaluate the potential anti-inflammatory effects of VX-745 in the brain
One hour after the last vehicle or VX-745 morning dosing, the animals (10 per dosing group) were deeply anesthetized with pentobarbital and blood samples were collected by cardiac puncture. 500 μl of blood was collected into EDTA microtubes, centrifuged, and plasma collected. The brains were perfused with heparinized saline, and the brains were collected. Right hemisphere was post-fixed by immersion in 4% PFA in 0.1 M PB for 24 h. After a brief wash with phosphate buffer, the hemisphere was cryoprotected in 30% sucrose in PB for 2-3 days, after which it was frozen on liquid nitrogen and stored at −80° C. for optional future immunohistochemical analysis. […]
Cortex and hippocampal soluble extracts were analyzed for PSD95 content using an ELISA kit (Cusabio Biotech Ltd., #CSB-EL006938RA, Lot 031154387), while the levels of Il-1β were analyzed only from hippocampus (R&D Systems, #RLB00, Lot 308544).

[2] = tested on: cognitive defects in aged rats; experiment: Morris water maze in aged rats; assay type: in vivo, Fischer rats
Protocol: Altogether 60 female aged (20-24 months) and 15 young adult female Fischer Rats (2-3 months) were used for the experiment. Rats were treated with oral gavage twice-a-day until the sampling (23 days) with vehicle or VX-745 0.5, 1.5 or 4.5 mg/kg. Learning and memory deficits were analyzed with Morris water maze (MWM) one week after starting the treatment.
All animal experiments were carried out according to the National Institute of Health (NIH) guidelines for the care and use of laboratory animals, and approved by the National Animal Experiment Board, Finland. Altogether 60 female aged (20-24 months) and 15 young (2-3 months) adult female Fischer rats (Charles River, France) were used for the experiment. Animals were housed at a standard temperature (22±1° C.) and in a light-controlled environment (lights on from 7 am to 8 pm) with ad libitum access to food and water. Animals were grouped as follows: • Group 1: 15 Aged Rats treated with Vehicle p.o. BID • Group 2: 15 Aged Rats treated with VX-745 (0.5 mg/kg) p.o. BID • Group 3: 15 Aged Rats treated with VX-745 (1.5 mg/kg) p.o. BID • Group 4: 15 Aged Rats treated with VX-745 (4.5 mg/kg) p.o. BID • Group 5: 15 Young adult control rats treated with Vehicle p.o. BID Drug Delivery and Rat Identification
The rats were assigned to the treatment groups equally based on their body weight and visible platform pre-training performance to ensure that both good and poor learners were equally present in all treatment groups. The treatment was given by oral gavage twice-a-day until the sampling. Vehicle was 1% Pluronic F108 and dosing volume was 5 ml/kg. Administration of vehicles and test compounds was done at 7-9 am and 3-5 pm on the pre-testing phase. On the days of behavioral testing, the treatment was given minimum 1 hour prior to first test trial. Test compounds were formulated and stored according to the instructions provided by the sponsor. The rats were marked accordingly with permanent marker to the tail. Records were kept about treatment groups and daily treatment times.
Water maze task was originally designed by Morris et al. (J Neurosci Methods. 1984; 11: 194 47-60). Testing was performed in a large dark-colored tank (200 cm in diameter) filled with clear water at a temperature of 25.0±1.0° C. A submerged platform (square platform: 10×10 cm; 1.5 cm below water surface) was placed in the middle of the of the NW quadrant. The starting locations, which were labeled N, NE, E, SE, S, SW, W, NW, were located arbitrarily on the pool rim. The rats were lowered into the pool with their nose pointing toward the wall at one of the starting points. The release point adjacent to platform location (NW) was not used.
Before the compound treatment was started, the visible platform pre-training was performed to determine whether any non-cognitive performance impairments (e.g. visual impairments and/or swimming difficulties) were present, which might affect performance on the place or probe trials. After the visible platform pre-training was completed, the data was analyzed and the rats were assigned to the different treatment groups based on their pre-training performance. This procedure was performed to ensure that each treatment group consisted equally both good and poor performers in the cued version of the water maze task.
Acquisition training—weeks 1 (days 8-11) & 2 (days 15-18): After completion of cued trials, acquisition (place) trials were executed to determine the rat's ability to learn the spatial relationship between distant cues and the submerged escape platform which remained in the same location for all place trials. The starting points were randomized (NW is not used). The rats received four trials (15 min apart, 60 s maximum for each trial) each day for 4 days/week. Latency and path length (distance) were evaluated.
Probe trial (day 19): A single probe trial was conducted 24 hours after the last place trial to evaluate memory retention. […]

[3] = tested on: cytokine (IL-1β or TNFα) production in whole blood; settings: inhibition of cytokine production (anti-inflammatory activity); cited from earlier work
[4] = Plasma concentration by LC-MS/MS 1 hour post dosing; assay type: in vivo, Fischer rats
Protocol: as §1
One hour after the last vehicle or VX-745 morning dosing, the animals (10 per dosing group) were deeply anesthetized with pentobarbital and blood samples were collected by cardiac puncture. 500 μl of blood was collected into EDTA microtubes, centrifuged, and plasma collected. The brains were perfused with heparinized saline, and the brains were collected. Right hemisphere was post-fixed by immersion in 4% PFA in 0.1 M PB for 24 h. After a brief wash with phosphate buffer, the hemisphere was cryoprotected in 30% sucrose in PB for 2-3 days, after which it was frozen on liquid nitrogen and stored at −80° C. for optional future immunohistochemical analysis. Left hemisphere was dissected to ventral and dorsal cortex, hippocampus and remaining brain fraction and fresh frozen on dry ice.
Plasma samples were processed using acetonitrile precipitation and then analyzed for VX745 drug concentration by LC-MS/MS

[5] = animals; cited from earlier work

In the case of VX-745, the “blood brain barrier penetration” value ([1]; animals) is given as “known to penetrate the blood brain barrier (BBB)”, the “brain concentrations relative to plasma” value ([1]; brain versus plasma) is given as 1.7 times and the PSD95 protein levels (PSD95; 1.5 mg/kg) is given as “no evident effects”. For the same substance, the PSD95 protein levels (PSD95; 4.5 mg/kg versus aged vehicle-treated group, p=0.063 Mann-Whitney) was “statistical trend towards higher levels of PSD95”, the “MWM distance at day 17” value ([2]; 1.5 mg/kg p.o. BID versus vehicle-treated aged rats, p=0.0.019) was “statistically significant better performance” and the “MWM change in latency from first test day to last test day” value ([2]; 1.5 mg/kg p.o. BID versus vehicle-treated aged rats, p=0.007) was “performed significantly better”. For the same substance, the “MWM change in distance from first test day to last test day” value ([2]; 1.5 mg/kg p.o. BID versus vehicle-treated aged rats, p=0.012) was “performed significantly better”, the “MWM latency at day 17” value ([2]; 1.5 mg/kg p.o. BID versus vehicle-treated aged rats, p=0.013) was “statistically significant better performance” and the “MWM latency and distance, comparison of dose groups” value ([2]; 1.5 mg/kg p.o. BID, about equal to young vehicle-treated rats on Day 17) was “greatest effect”. The “MWM swim time and distance over sequential testing” value ([2]; VX-745-treated aged rats, p.o. BID) was “greater progressive shortening of swim time and distance”, the “MWM probe trial parameters (day 19)” value ([2]; time in target quadrant and annulus, platform crosses) was “no positive or negative effects” and the “whole blood IC50” value [3] was 0.065 to 0.08 µg/mL. For the same substance, the “plasma drug concentration relative to concentrations needed for IL-1β inhibition” value ([4]; 1.5 mg/kg) was “reached drug concentrations required for blocking IL-1β signaling”, the “plasma drug concentration relative to concentrations needed for IL-1β inhibition” value ([4]; 4.5 mg/kg) was “reached concentrations exceeding whole blood IC50 for IL-1β production” and the “plasma drug levels one hour after last dose” value ([4]; 0.5, 1.5 and 4.5 mg/kg p.o. BID, aged rats) was “increased in a dose proportional manner”. For the same substance, the “neurological effects at very high doses” value [5] was “adverse neurological effects”.
